This passage reports IC50 results from patent publication US20100041642A1, “UREA INHIBITORS OF MAP KINASES” (LOCUS PHARMACEUTICALS, INC., priority 2008, published 2010).

Chain of p38 (Q16539 whole entry, the tested form may be a part): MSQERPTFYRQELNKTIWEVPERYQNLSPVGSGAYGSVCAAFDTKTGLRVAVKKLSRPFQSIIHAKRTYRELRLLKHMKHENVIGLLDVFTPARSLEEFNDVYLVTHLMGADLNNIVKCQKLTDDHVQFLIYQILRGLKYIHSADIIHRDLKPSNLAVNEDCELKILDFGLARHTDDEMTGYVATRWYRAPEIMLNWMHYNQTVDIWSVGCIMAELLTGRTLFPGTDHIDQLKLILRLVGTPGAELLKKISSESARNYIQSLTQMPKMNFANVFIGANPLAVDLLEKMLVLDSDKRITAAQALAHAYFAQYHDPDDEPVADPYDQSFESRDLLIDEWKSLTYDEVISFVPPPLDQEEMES

The target in this assay is p38 (Homo sapiens, UniProt Q16539). Nature of the assay: Protein Kinase Assay (33P incorporation from γ-[33P]ATP into GST-ATF-2). Format: biochemical. The note with it: 2 nM p38, preincubated 20 min at 30° C.; 10 uM cold ATP, 2 uM GST-ATF2, 70 min; read-out: ACT. (Activity), IC50 category in Protein Kinase Assay. Here is the method:
Protein Kinase Assay. The protein kinase activity of p38 was determined by measuring the incorporation of ^33P from γ-[^33P]ATP into the GST-ATF-2 substrate, amino acids 19-96 (Upstate, N.Y. USA). The reactions were carried out in a final volume of 50 μL of 24 mM Tris-HCl buffer, pH 7.5, containing 13 mM MgCl2, 12% Glycerol, 2% DMSO, 2 mM DTT, […] of γ-[^33P]ATP (1000 Ci/mmol; 1 Ci=37 GBq) (GE Healthcare, Piscataway, N.J.), 10 uM cold ATP (GE Healthcare, Piscataway, N.J.), and 2 uM GST-ATF2. Compounds were preincubated with 2 nM p38 for 20 min at 30° C.; the reactions were initiated by the addition of GST-ATF2 and ATP and incubated for 70 min at 30° C. before being stopped by the addition of 10 μL of 600 mM phosphoric acid. The phosphorylated substrate was captured on phosphocellulose 96-well plate (Millipore MAPHNOB 10), washed with 100 mM phosphoric acid, and counted in a BeckmenCoulter LS6500 liquid scintillation counter. […] (Activity).
As a reminder, the IC50 is the midpoint of a concentration-inhibition curve. With `CCc1ccc(-c2cc(NC(=O)Nc3sc(C(C)(C)C)cc3C(=O)N3CCN(C)C(=O)C3(C)C)cc(F)c2C)cn1` [1-(5-tert-butyl-3-(2,2,4-trimethyl-3-oxopiperazine-1-carbonyl)thiophen-2-yl)-3-(3-(6-ethylpyridin-3-yl)-5-fluoro-4-methylphenyl)urea], the IC50 was under 100 nM.

For the molecule `Cc1ccc(NC(=O)Nc2sc(C(C)(C)C)cc2C(=O)N2CCN(C)C(=O)C2(C)C)cc1-c1ccc(OC(C)C)nc1` [1-(5-tert-butyl-3-(2,2,4-trimethyl-3-oxopiperazine-1-carbonyl)thiophen-2-yl)-3-(3-(6-isopropoxypyridin-3-yl)-4-methylphenyl)urea], the IC50 was under 100 nM.

`COc1ccc(-c2cc(NC(=O)Nc3sc(C(C)(C)C)cc3C(=O)N3CCN(C)C(=O)C3(C)C)ccc2C)cn1` [1-(5-tert-butyl-3-(2,2,4-trimethyl-3-oxopiperazine-1-carbonyl)thiophen-2-yl)-3-(3-(6-methoxypyridin-3-yl)-4-methylphenyl)urea]: the half-maximal inhibitory concentration (IC50) was under 100 nM.

Consider `COc1ccc(-c2cc(NC(=O)Nc3sc(C(C)(C)C)cc3C(=O)N3CCN(C)C(=O)C3(C)C)cc(F)c2C)cn1` [1-(5-tert-butyl-3-(2,2,4-trimethyl-3-oxopiperazine-1-carbonyl)thiophen-2-yl)-3-(3-fluoro-5-(6-methoxypyridin-3-yl)-4-methylphenyl)urea], for which the concentration for half-maximal inhibition (IC50) is under 100 nM.

For the molecule `Cc1ccc(NC(=O)Nc2sc(C(C)(C)C)cc2C(=O)N2CCN(C)C(=O)C2(C)C)cc1N1C(=O)CN(C)C1=O` [1-(5-tert-butyl-3-(2,2,4-trimethyl-3-oxopiperazine-1-carbonyl)thiophen-2-yl)-3-(4-methyl-3-(3-methyl-2,5-dioxoimidazolidin-1-yl)phenyl)urea], the IC50 was under 100 nM.

Regarding `Cc1ccc(NC(=O)Nc2sc(C(C)(C)C)cc2C(=O)N2CCN(C)C(=O)C2(C)C)cc1-c1ccc(CN2CCOCC2)cn1` [1-(5-tert-butyl-3-(2,2,4-trimethyl-3-oxopiperazine-1-carbonyl)thiophen-2-yl)-3-(4-methyl-3-(5-(morpholinomethyl)pyridin-2-yl)phenyl)urea], the IC50 was under 100 nM.

Regarding `Cc1ccc(NC(=O)Nc2sc(C(C)(C)C)cc2C(=O)N2CCN(C)C(=O)C2(C)C)cc1-c1ccc(C(C)N2CCOCC2)nc1` (centres unmarked) [1-(5-tert-butyl-3-(2,2,4-trimethyl-3-oxopiperazine-1-carbonyl)thiophen-2-yl)-3-(4-methyl-3-(6-(1-morpholinoethyl)pyridin-3-yl)phenyl)urea], the IC50 is under 100 nM.

Turning to `Cc1ccc(NC(=O)Nc2sc(C(C)(C)C)cc2C(=O)N2CCN(C)C(=O)C2(C)C)cc1-c1ccc(N2CCN(C)CC2)nc1` [1-(5-tert-butyl-3-(2,2,4-trimethyl-3-oxopiperazine-1-carbonyl)thiophen-2-yl)-3-(4-methyl-3-(6-(4-methylpiperazin-1-yl)pyridin-3-yl)phenyl)urea], the IC50 was under 100 nM.

As for `Cc1nnc(-c2ccc(-c3cc(NC(=O)Nc4sc(C(C)(C)C)cc4C(=O)N4CCN(C)C(=O)C4(C)C)ccc3C)cn2)o1` [1-(5-tert-butyl-3-(2,2,4-trimethyl-3-oxopiperazine-1-carbonyl)thiophen-2-yl)-3-(4-methyl-3-(6-(5-methyl-1,3,4-oxadiazol-2-yl)pyridin-3-yl)phenyl)urea], the IC50 was under 100 nM.

As for `Cc1ccc(NC(=O)Nc2sc(C(C)(C)C)cc2C(=O)N2CCN(C)C(=O)C2(C)C)cc1-c1ccc(CN2CCN(C)CC2)nc1` [1-(5-tert-butyl-3-(2,2,4-trimethyl-3-oxopiperazine-1-carbonyl)thiophen-2-yl)-3-(4-methyl-3-(6-((4-methylpiperazin-1-yl)methyl)pyridin-3-yl)phenyl)urea], the IC50 is under 100 nM.

As to `Cc1ccc(NC(=O)Nc2sc(C(C)(C)C)cc2C(=O)N2CCN(C)C(=O)C2(C)C)cc1-c1ccc(C(=O)N2CCOCC2)nc1` [1-(5-tert-butyl-3-(2,2,4-trimethyl-3-oxopiperazine-1-carbonyl)thiophen-2-yl)-3-(4-methyl-3-(6-(morpholine-4-carbonyl)pyridin-3-yl)phenyl)urea], the 50% inhibitory concentration (IC50) was under 100 nM.

Regarding `Cc1ccc(NC(=O)Nc2sc(C(C)(C)C)cc2C(=O)N2CCN(C)C(=O)C2(C)C)cc1-c1ccc(CN2CCOCC2)nc1` [1-(5-tert-butyl-3-(2,2,4-trimethyl-3-oxopiperazine-1-carbonyl)thiophen-2-yl)-3-(4-methyl-3-(6-(morpholinomethyl)pyridin-3-yl)phenyl)urea], the IC50 was under 100 nM.

With `Cc1ccc(NC(=O)Nc2sc(C(C)(C)C)cc2C(=O)N2CCN(C)C(=O)C2(C)C)cc1-c1ccc(CN2CCCC2)nc1` [1-(5-tert-butyl-3-(2,2,4-trimethyl-3-oxopiperazine-1-carbonyl)thiophen-2-yl)-3-(4-methyl-3-(6-(pyrrolidin-1-ylmethyl)pyridin-3-yl)phenyl)urea], the IC50 was under 100 nM.

For the molecule `Cc1ccc(-c2cc(NC(=O)Nc3sc(C(C)(C)C)cc3C(=O)N3CCN(C)C(=O)C3(C)C)ccc2C)cn1` [1-(5-tert-butyl-3-(2,2,4-trimethyl-3-oxopiperazine-1-carbonyl)thiophen-2-yl)-3-(4-methyl-3-(6-methylpyridin-3-yl)phenyl)urea], the IC50 was under 100 nM.

Regarding `Cc1ccc(NC(=O)Nc2sc(C(C)(C)C)cc2C(=O)N2CCN(C)C(=O)C2(C)C)cc1-c1ccc(N2CCOCC2)nc1` [1-(5-tert-butyl-3-(2,2,4-trimethyl-3-oxopiperazine-1-carbonyl)thiophen-2-yl)-3-(4-methyl-3-(6-morpholinopyridin-3-yl)phenyl)urea], the concentration for half-maximal inhibition (IC50) was under 100 nM.

With `Cc1ncc(NC(=O)Nc2sc(C(C)(C)C)cc2C(=O)N2CCN(C)C(=O)C2(C)C)cc1C#CC1CC1` [1-(5-tert-butyl-3-(2,2,4-trimethyl-3-oxopiperazine-1-carbonyl)thiophen-2-yl)-3-(5-(cyclopropylethynyl)-6-methylpyridin-3-yl)urea], the IC50 is under 100 nM.

Regarding `Cc1ccc(NC(=O)Nc2oc(C(C)(C)C)cc2C(=O)N2CCNC(=O)C2(C)C)cc1-c1ccncc1` [1-(5-tert-butyl-3-(2,2-dimethyl-3-oxopiperazine-1-carbonyl)furan-2-yl)-3-(4-methyl-3-(pyridin-4-yl)phenyl)urea], the concentration for half-maximal inhibition (IC50) was under 100 nM.

Turning to `COc1ccc(-c2cc(NC(=O)Nc3sc(C(C)(C)C)cc3C(=O)N3CCNC(=O)C3(C)C)c(F)cc2C)cn1` [1-(5-tert-butyl-3-(2,2-dimethyl-3-oxopiperazine-1-carbonyl)thiophen-2-yl)-3-(2-fluoro-5-(6-methoxypyridin-3-yl)-4-methylphenyl)urea], the IC50 is under 100 nM.

With `Cc1c(NC(=O)Nc2sc(C(C)(C)C)cc2C(=O)N2CCNC(=O)C2(C)C)cccc1-c1ccc(N2CCOCC2)nc1` [1-(5-tert-butyl-3-(2,2-dimethyl-3-oxopiperazine-1-carbonyl)thiophen-2-yl)-3-(2-methyl-3-(6-morpholinopyridin-3-yl)phenyl)urea], the IC50 is under 100 nM.

`Cc1ccc(-c2ccc(N3CCOCC3)nc2)cc1NC(=O)Nc1sc(C(C)(C)C)cc1C(=O)N1CCNC(=O)C1(C)C` [1-(5-tert-butyl-3-(2,2-dimethyl-3-oxopiperazine-1-carbonyl)thiophen-2-yl)-3-(2-methyl-5-(6-morpholinopyridin-3-yl)phenyl)urea]: the IC50 was under 100 nM.
